Where a name gives a salt, the structure may show the parent alone.
Legend:
[1] = in vivo; cited from earlier work
[2] = test system: uptake of 14C-5-hydroxytryptamine; test: Inhibition of uptake of 14C-5-HT in mouse midbrain slices after in vivo (i.p.) administration; settings: i.p. half an hour before killing, dose producing 50 percent decrease of active uptake; for ED50: Mus musculus, ip, 0.5 h
Description: (§1) It is not possible by experimental means to induce depressions in laboratory animals. In order to evaluate a possible anti-depressive effect of new substances biochemical-pharmacological test methods must be resorted to. One such method, which seems to give a good indication of the potential anti-depressive effects of the test substances, is described in Europ.
(§2) The test substances were administered intraperitoneally half an hour before the animals were killed. […] The incubation time was 5 minutes with 5 minutes of preincubation before the labelled amines were added. The slices were dissolved in Soluene® and the amounts of radio-active amines taken up were determined by liquid scintillation. […] Active uptake is defined as that part of the radioactive uptake which is inhibited by a high concentration of cocaine.

[3] = test system: uptake of 3H-noradrenaline; test: Inhibition of uptake of 3H-noradrenaline in mouse midbrain slices after in vivo (i.p.) administration; settings: ip, at the dose 101 μmole/kg i.p., read-out: inhibition recorded (uptake of 3H-NA, in vivo)
Description: as §2, with “It is not possible by experimental means to induce depressions in laboratory animals. In order to evaluate a possible anti-depressive effect of new substances biochemical-pharmacological test methods must be resorted to. One such method, which seems to give a good indication of the potential anti-depressive effects of the test substances, is described in Europ. […] The test” for “The test”

[4] = test system: uptake of 14C-5-hydroxytryptamine; test: Inhibition of uptake of 14C-5-HT in mouse midbrain slices, in vitro; assay type: biochemical; settings: 5 minutes preincubation, 5 minutes incubation
Description: as §1, §2
In the in vitro method, slices of mouse midbrain were preincubated for 5 minutes with a solution of the compound to be tested and then incubated as described above.

SMILES	antidepressive effect [1]	Uptake of 14C-5-HT, in vivo ED50 ([2]; 30 min) [μmole/kg i.p.]	inhibition at 101 µmol/kg [3] [%]	EC50 [4] [nM]	ED50 [2] [µmol/kg]
CN(C)CC=C(c1ccccc1)c1ccccc1	have an antidepressive effect				
CNC/C=C(/c1ccc(Br)cc1)c1cccnc1 [H, Z, hydrochloride, 3-(4-bromophenyl)-N-methyl-3-(3-pyridyl)-allylamine]		15.2	38		
CNC/C=C(/c1ccc(Br)cc1)c1cccnc1 [H, Z, oxalate, 3-(4-bromophenyl)-N-methyl-3-(3-pyridyl)-allylamine]				500	18
CNCC=C(c1ccc(Br)cc1)c1cccnc1 [H, mixture, oxalate, 3-(4-bromophenyl)-N-methyl-3-(3-pyridyl)-allylamine]				500	32
